Common to all, as to assay type: cell-based
The test system of experiment [1] is Human multiple myeloma cell line RPMI8226. Nature of the experiment: Anticancer activity against multiple myeloma cell (Cell Counting Kit-8, 3 days). As to conditions: RPMI-8226, 72 h, read-out: IC50 value against a multiple myeloma cell. On the procedure: Human multiple myeloma cell line RPMI8226 was seeded on a 96 well plate in a density of 1×10^4 cells/well, and incubated under 5% carbon dioxide atmosphere at 37° C. overnight. Separately, the compound obtained in Example 2 was dissolved in dimethylsulfoxide, and added to each well so that the final concentration of the compound became 0.5 μM, 1 μM, 2 μM, 3 μM, 12.5 μM, 25 μM or 50 μM.
In addition, melphalan, which is a multiple myeloma therapeutic agent, was added to each well so that the final concentration of the compound became 10 μM, 20 μM, 30 μM, 40 μM or 50 μM as positive controls for comparison. Further, an experimental case in which only dimethylsulfoxide was added in the final concentration of 0.5 v/v % without adding the compound was provided.
Then, after the cell was cultured under 5% carbon dioxide atmosphere at 37° C. for 3 days, an absorbance of formazan, which is an orange pigment produced by a living cell, at the wavelength of 420 nm was measured using a reagent for measuring cell proliferation/cytotoxicity (manufactured by Dojin Chemical Co., Cell Counting Kit-8). […] In addition, IC50 values were calculated from the obtained results.

Experiment [2] relates to SP cell of human multiple myeloma cell line RPMI8226. In words: Anticancer activity against SP cell (Hoechst33342 flow cytometry). As to conditions: 5 μM. As for the experimental part: A stem cell can undergo differentiation into various tissues and cells such as a hematopoietic stem cell, and has the quality to exclude fluorescent chemical substance such as Hoechst33258 extracellularly. […] A cell having such properties is called as an SP cell, i.e. Side Population Cell. […] Therefore, an effect of the present invention compound against a cancerous SP cell was examined.
Specifically, human multiple myeloma cell line RPMI8226 was incubated in the presence of the present invention compound similarly to Example 4. The cell was dispersed in 3% FBS DMEH so that the concentration became 1×10^6 cells/mL. A temperature of the dispersion was increased to 37° C., and then Hoechst33342 was added thereto so that the concentration thereof became 5 μg/ml. The mixture was incubated at 37° C. for 60 minutes under a shaded state with stirring every 20 minutes. Then, the mixture was centrifuged at 800×g for 3 minutes, and the supernatant was removed. Further, a washing procedure in which cooled 2% FES PBS was added, the mixture was centrifuged and the supernatant was removed was repeated two times. Separately, propidium iodide was dissolved in PBS to obtain a 200 μg/mL solution. […] The emitted fluorescence was passed through a bandpass filters of 450 nm and 675 nm, and deployed to obtain a two-dimensional dot plot. […]

Experiment [3] relates to Human multiple myeloma cell line RPMI8226. In words: Survival rate of blood cancer cells (WST-8, 72 hours). Conditions: RPMI-8226, 72 h, read-out: EC50, Multiple myeloma cell. On the procedure: (§1) Human acute myelogenous leukemia cell line KG1 and human promyelocytic leukemia cell line HL60 in addition to human multiple myeloma cell line RPMI8226 were seeded in a highly nutrient medium containing 10% FES (RPMI1640, 100 μL) in a density of 1×10^3 cells/well. The cells were incubated under 5% carbon dioxide atmosphere at 37° C. overnight. Separately, the compound of Example 2 was dissolved in DMSO and the obtained solution was diluted with the same culture medium. The mixture was added to each well so that the final concentrations of the compound became 0.39 μM, 0.78 μM, 1.56 μM, 3.13 μM, 6.25 μM, 12.5 μM or 50 μM.
(§2) In addition, melphalan, which is a multiple myeloma therapeutic agent, was added to each well at the same final concentrations as positive controls for comparison. Further, an experimental case in which only dimethylsulfoxide was added in the final concentration of 0.2 to 0.8 v/v % without adding the compound was provided.
(§3) Then, after the cells were cultured under 5% carbon dioxide atmosphere at 37° C. for 72 hours, the culture medium was removed and a culture medium obtained by mixing 100 μL of the above culture medium and 10 μL of WST-8, which is a reagent for measuring a cell number, was added to each well. After the cells were cultured under 5% carbon dioxide atmosphere at 37° C. for 2 hours, an absorbance at 450 nm was measured. The absorbance value when the cells were treated with DMSO only was set to be 100%, and a ratio of absorbance values at each concentration of the present invention compound or melphalan relative to the value were calculated as survival rate of each blood cancer cell. In addition, EC50, i.e. 50% effective concentration value, of each compound against each blood cancer cell was calculated from the obtained results.

The test system of experiment [4] is Human acute myelogenous leukemia cell line KG1. Described as above. Conditions: read-out: EC50, Acute myelogenous leukemia cell. As for the experimental part:
as §1, §2, §3

The subject of experiment [5] is human promyelocytic leukemia cell line HL60. Described as above. Conditions: HL-60, 72 h, read-out: EC50, Promyelocytic leukemia cell. On the procedure: as §1, §2, §3

`N[C@@H](Cc1ccc(N(CCCl)CCCl)cc1)C(=O)O` [Melphalan, melphalan]: in experiment [1], the IC50 is 21 µM. In addition, the “ratio of stained cells in SP region relative to the total cells” value in experiment [2] (control (0.5% DMSO only) 0.680 ± 0.0173%) came to 0.563 ± 0.0777%. For the same molecule, the “ratio of stained cells in Non-SP region relative to the total cells” value in experiment [2] (control (0.5% DMSO only) 19.2 ± 0.295%) is 5.05 ± 0.414%. Moreover, the 50% effective concentration (EC50) was 9.82 µM in experiment [3], 3.69 µM in experiment [4] and 0.734 µM in experiment [5].

Values taken from patent US20140094521A1, “BENZYLAMINE DERIVATIVE” (priority 2011, published 2014).
